Five compounds from patent publication US7432262B2, “Imidazopyridazinediones, their preparation and their use as pharmaceutical compositions” (Boehringer Ingelheim International GmbH, priority 2004, dated 2008) can be followed below.

The target in the experiment is T1, DPP-IV (Homo sapiens, UniProt P27487).
T1 construct: an extract of the human colon carcinoma cell line Caco-2 is used as the DPP IV source; endogenous in cells; host or cells: Caco-2 (human colon carcinoma), differentiated to induce DPP-IV expression; extract solubilized with Nonidet-P40
T1 sequence (P27487 whole entry): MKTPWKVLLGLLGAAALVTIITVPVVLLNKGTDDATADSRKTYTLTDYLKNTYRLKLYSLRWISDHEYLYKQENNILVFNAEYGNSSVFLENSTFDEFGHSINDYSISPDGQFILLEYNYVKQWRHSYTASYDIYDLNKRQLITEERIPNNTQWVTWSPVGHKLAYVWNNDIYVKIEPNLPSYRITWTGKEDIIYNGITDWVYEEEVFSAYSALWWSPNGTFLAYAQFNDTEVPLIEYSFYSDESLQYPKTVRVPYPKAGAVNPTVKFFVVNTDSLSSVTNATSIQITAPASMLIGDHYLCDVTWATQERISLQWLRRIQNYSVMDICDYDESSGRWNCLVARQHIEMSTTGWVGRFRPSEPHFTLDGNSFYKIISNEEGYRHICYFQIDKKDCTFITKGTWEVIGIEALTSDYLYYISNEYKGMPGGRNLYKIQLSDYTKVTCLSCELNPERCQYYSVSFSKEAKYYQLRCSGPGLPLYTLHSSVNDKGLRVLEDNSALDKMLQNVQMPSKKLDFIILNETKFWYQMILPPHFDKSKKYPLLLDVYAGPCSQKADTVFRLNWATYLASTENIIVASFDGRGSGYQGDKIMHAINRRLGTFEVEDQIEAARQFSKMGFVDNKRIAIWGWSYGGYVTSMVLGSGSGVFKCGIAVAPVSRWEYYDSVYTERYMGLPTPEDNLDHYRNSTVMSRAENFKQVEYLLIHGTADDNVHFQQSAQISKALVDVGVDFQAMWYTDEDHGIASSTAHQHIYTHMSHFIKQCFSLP
Nature of the experiment: DPP-IV assay with Caco-2 cell extract as DPP IV source. To be noted: extract of human colon carcinoma cell line Caco-2; AFC substrate 100 μM; 60 minutes, ambient temperature; 11-point curves; read-out: DPP IV inhibition IC50. The class given is biochemical. As for the experimental part: The differentiation of the cells in order to induce the DPP-IV expression was carried out in accordance with the description by Reiher et al. in an article entitled “Increased expression of intestinal cell line Caco-2” that appeared in Proc. Natl. Acad. Sci. Vol. 90, pp. 5757-5761 (1993). The cell extract was obtained from cells solubilized in a buffer (10 mM Tris HCl, 0.15 M NaCl, 0.04 t.i.u. aprotinin, 0.5% Nonidet-P40, pH 8.0) by centrifugation at 35,000 g for 30 minutes at 4° C. (to remove cell debris).
The DPP-IV assay was carried out as follows:
50 μl of substrate solution (AFC; AFC is amido-4-trifluoromethylcoumarin), final concentration 100 μM, was placed in black microtitre plates. 20 μl of assay buffer (final concentrations 50 mM Tris HCl pH 7.8, 50 mM NaCl, 1% DMSO) was pipetted therein. The reaction was started by the addition of 30 μl of solubilized Caco-2 protein (final concentration 0.14 μg of protein per well). The test substances under investigation were typically added prediluted to 20 μl, while the volume of assay buffer was then reduced accordingly. The reaction was carried out at ambient temperature, the incubation period was 60 minutes. Then the fluorescence was measured in a Victor 1420 Multilabel Counter, with the excitation wavelength at 405 nm and the emission wavelength at 535 nm. Dummy values (corresponding to 0% activity) were obtained in mixtures with no Caco-2 protein (volume replaced by assay buffer), control values (corresponding to 100% activity) were obtained in mixtures without any added substance. The potency of the test substances in question, expressed as IC50 values, were calculated from dosage/activity curves consisting of 11 measured points in each case.
As usually defined, the IC50 is the midpoint of a concentration-inhibition curve. As for `CC#CCn1c(N2CCC[C@@H](N)C2)nc2c(=O)n(Cc3ccccc3)n(Cc3ccc4ccccc4n3)c(=O)c21` [1(3), (R)-1-(but-2-ynyl)-2-(3-amino-piperidin-1-yl)-5-(phenylmethyl)-6-(quinolin-2-ylmethyl)-5,6-dihydro-1H-imidazo[4,5-d]pyridazine-4,7-dione×2 trifluoroacetic acid], the half-inhibitory concentration (IC50) was 14 nM.

Take `CC#CCn1c(N2CCC[C@@H](N)C2)nc2c(=O)n(C)n(Cc3cccc4ccccc34)c(=O)c21` [1(4), (R)-1-(but-2-ynyl)-2-(3-amino-piperidin-1-yl)-5-methyl-6-(naphth-1-ylmethyl)-5,6-dihydro-1H-imidazo[4,5-d]pyridazine-4,7-dione×1 trifluoroacetic acid]: the IC50 is 52 nM.

Turning to `C=CCn1c(=O)c2nc(N3CCC[C@@H](N)C3)n(CC#CC)c2c(=O)n1Cc1ccc2ccccc2n1` [1(2), (R)-1-(but-2-ynyl)-2-(3-amino-piperidin-1-yl)-5-(prop-2-enyl)-6-(quinolin-2-ylmethyl)-5,6-dihydro-1H-imidazo[4,5-d]pyridazine-4,7-dione×2 trifluoroacetic acid], the IC50 stood at 6 nM.

As to `CC#CCn1c(N2CCC[C@@H](N)C2)nc2c(=O)n(C)n(Cc3ccc4ccccc4n3)c(=O)c21` [1(1), (R)-1-(but-2-ynyl)-2-(3-amino-piperidin-1-yl)-5-methyl-6-(quinolin-2-ylmethyl)-5,6-dihydro-1H-imidazo[4,5-d]pyridazine-4,7-dione×2 trifluoroacetic acid], the IC50 was determined as 4 nM.

In the case of `CC#CCn1c(N2CCC[C@@H](N)C2)nc2c(=O)n(CC#N)n(Cc3ccc4ccccc4n3)c(=O)c21` [Example 1, (R)-1-(but-2-ynyl)-2-(3-amino-piperidin-1-yl)-5-cyanomethyl-6-(quinolin-2-ylmethyl)-5,6-dihydro-1H-imidazo[4,5-d]pyridazine-4,7-dione×2 trifluoroacetic acid], the IC50 turned out to be 1 nM.
